Experiments:
FLT3 = FLT3 (Homo sapiens (Human), UniProt P36888); test: In vitro kinase panel (SelectScreen); type: biochemical
Description: (§2) In vitro kinase screen and competitive binding assay. […] 11-point Kd curves were determined for hits identified during the initial screen.

XPA-1 cells = test: Cell cycle analysis of XPA-1 cells (flow cytometry); type: cell-based; conditions: 5 μM, 20 h
Description: For cell cycle analysis, cells were grown in complete DMEM+10% FBS in the presence of each inhibitor and harvested after 20 h of inhibitor treatment. Cell cycle analysis was performed by flow cytometry following propidium iodide staining. The cells were harvested, fixed with ice cold methanol, treated for 45 min with 10 μg/ml of RNAse and resuspended in PBS containing 10 μg/ml of PI, and analysed by flow cytometry. […] For corresponding confocal microscopy images, cells attached to coverslips were fixed with cold methanol and permeabilized in PBS containing 0.1% triton X-100 for two minutes and blocked for 60 minutes, at room temperature with 2% BSA in PBS. Cells were stained with the DNA binding dye TOPRO-3 (Invitrogen) to label the DNA and laminB (Santa Cruz) to label the nuclear envelope. The anti-Lamin B antibody was used at a 1:100 dilution for two hours at room temperature. After washing several times with PBS, cells were stained for two hours at room temperature, with secondary antibody diluted 1:300 and co-incubated with TOPRO-3 (1:500) (Invitrogen). Samples were mounted in Vectashield hard-set mounting media (Vector Laboratories) and imaged on a Nikon Eclipse Cl confocal microscope with a 1.4 NA 60× oil-immersion lens, using minimum pinhole (30 μm). Images were captured and processed using EZ-C1 3.50 imaging software (Nikon, Inc). Scale bars, 10 μm.

PKC gamma = PKC gamma (Homo sapiens (Human), UniProt P05129); test: In vitro kinase panel (SelectScreen); type: biochemical
Source text: (§1) In vitro kinase screen and competitive binding assay. Sorafenib as well as test compounds were submitted to Invitrogen and screened using their SelectScreen™ Profiling Service.

PKC beta II = PKC beta II (Homo sapiens (Human), UniProt P05771); test: In vitro kinase panel (SelectScreen); type: biochemical
Source text: as §1

JNK1 = JNK1 (Homo sapiens (Human), UniProt P45983); test: In vitro kinase panel (SelectScreen); type: biochemical
Source text: as §1

CDK2 = CDK2 (Homo sapiens (Human), UniProt P24941); test: In vitro kinase panel (SelectScreen); type: biochemical
Source text: as §1

MEK1 = MEK1 (Homo sapiens (Human), UniProt Q02750); test: In vitro kinase panel (SelectScreen); type: biochemical
Source text: as §1

FGFR3 K650E = FGFR3 K650E (Homo sapiens (Human), UniProt P22607, K650E); test: In vitro kinase panel (SelectScreen); type: biochemical
FGFR3 K650E, sequence (P22607 23-806 K650E): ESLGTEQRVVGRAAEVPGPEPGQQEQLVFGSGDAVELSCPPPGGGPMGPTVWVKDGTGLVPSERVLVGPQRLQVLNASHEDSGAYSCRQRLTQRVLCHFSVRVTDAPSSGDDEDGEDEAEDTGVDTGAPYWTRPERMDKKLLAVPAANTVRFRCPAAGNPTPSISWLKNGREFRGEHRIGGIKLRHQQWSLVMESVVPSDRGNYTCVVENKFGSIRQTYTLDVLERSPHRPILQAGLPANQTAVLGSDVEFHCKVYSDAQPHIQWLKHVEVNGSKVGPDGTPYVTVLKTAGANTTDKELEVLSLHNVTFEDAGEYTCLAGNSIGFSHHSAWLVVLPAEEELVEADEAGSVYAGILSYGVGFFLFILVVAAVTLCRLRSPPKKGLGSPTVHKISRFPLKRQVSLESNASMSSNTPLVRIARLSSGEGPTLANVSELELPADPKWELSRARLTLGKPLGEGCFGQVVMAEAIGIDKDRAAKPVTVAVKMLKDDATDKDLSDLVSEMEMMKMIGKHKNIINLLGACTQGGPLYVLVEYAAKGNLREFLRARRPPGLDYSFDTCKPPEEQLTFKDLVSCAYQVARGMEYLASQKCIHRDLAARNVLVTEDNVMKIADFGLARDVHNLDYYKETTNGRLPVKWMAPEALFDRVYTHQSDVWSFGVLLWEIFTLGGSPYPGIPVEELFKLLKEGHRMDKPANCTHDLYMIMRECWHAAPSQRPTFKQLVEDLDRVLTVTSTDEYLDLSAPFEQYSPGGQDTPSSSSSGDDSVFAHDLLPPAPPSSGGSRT
Source text: as §1

PAK2 = PAK2 (Homo sapiens (Human), UniProt Q13177); test: In vitro kinase panel (SelectScreen); type: biochemical
Source text: as §1

FGFR3 = FGFR3 (Homo sapiens (Human), UniProt P22607); test: In vitro kinase panel (SelectScreen); type: biochemical
FGFR3, sequence (P22607 23-806): as the sequence (P22607 23-806 K650E) above, with E628K counted along it
Source text: as §1

MEK2 = MEK2 (Homo sapiens (Human), UniProt P36507); test: In vitro kinase panel (SelectScreen); type: biochemical
Source text: as §1

IGF1R = IGF1R (Homo sapiens (Human), UniProt P08069); test: In vitro kinase panel (SelectScreen); type: biochemical
Source text: as §1

ERK2 = ERK2 (Homo sapiens (Human), UniProt P28482); test: In vitro kinase panel (SelectScreen); type: biochemical
Source text: as §1

CRAF Y340D Y341D = CRAF Y340D Y341D (Homo sapiens (Human), UniProt P04049, Y340D/Y341D); test: In vitro kinase panel (SelectScreen); type: biochemical
Source text: as §1

PKC beta I = PKC beta I (Homo sapiens (Human), UniProt P05771); test: In vitro kinase panel (SelectScreen); type: biochemical
Source text: as §1

MAPKAPK2 = MAPKAPK2 (Homo sapiens (Human), UniProt P49137); test: In vitro kinase panel (SelectScreen); type: biochemical; conditions: for % Inhibition at 10 μM: MAPKAPK2
Source text: as §1

FAK2 = FAK2 (Homo sapiens (Human), UniProt Q14289); test: In vitro kinase panel (SelectScreen); type: biochemical
Source text: as §1

CK2 alpha 1 = CK2 alpha 1 (Homo sapiens (Human), UniProt P68400); test: In vitro kinase panel (SelectScreen); type: biochemical
Source text: as §1

JNK2 = JNK2 (Homo sapiens (Human), UniProt P45984); test: In vitro kinase panel (SelectScreen); type: biochemical
Source text: as §1

PDGFR beta = PDGFR beta (Homo sapiens (Human), UniProt P09619); test: In vitro kinase panel (SelectScreen); type: biochemical
PDGFR beta, sequence (P09619 33-1106): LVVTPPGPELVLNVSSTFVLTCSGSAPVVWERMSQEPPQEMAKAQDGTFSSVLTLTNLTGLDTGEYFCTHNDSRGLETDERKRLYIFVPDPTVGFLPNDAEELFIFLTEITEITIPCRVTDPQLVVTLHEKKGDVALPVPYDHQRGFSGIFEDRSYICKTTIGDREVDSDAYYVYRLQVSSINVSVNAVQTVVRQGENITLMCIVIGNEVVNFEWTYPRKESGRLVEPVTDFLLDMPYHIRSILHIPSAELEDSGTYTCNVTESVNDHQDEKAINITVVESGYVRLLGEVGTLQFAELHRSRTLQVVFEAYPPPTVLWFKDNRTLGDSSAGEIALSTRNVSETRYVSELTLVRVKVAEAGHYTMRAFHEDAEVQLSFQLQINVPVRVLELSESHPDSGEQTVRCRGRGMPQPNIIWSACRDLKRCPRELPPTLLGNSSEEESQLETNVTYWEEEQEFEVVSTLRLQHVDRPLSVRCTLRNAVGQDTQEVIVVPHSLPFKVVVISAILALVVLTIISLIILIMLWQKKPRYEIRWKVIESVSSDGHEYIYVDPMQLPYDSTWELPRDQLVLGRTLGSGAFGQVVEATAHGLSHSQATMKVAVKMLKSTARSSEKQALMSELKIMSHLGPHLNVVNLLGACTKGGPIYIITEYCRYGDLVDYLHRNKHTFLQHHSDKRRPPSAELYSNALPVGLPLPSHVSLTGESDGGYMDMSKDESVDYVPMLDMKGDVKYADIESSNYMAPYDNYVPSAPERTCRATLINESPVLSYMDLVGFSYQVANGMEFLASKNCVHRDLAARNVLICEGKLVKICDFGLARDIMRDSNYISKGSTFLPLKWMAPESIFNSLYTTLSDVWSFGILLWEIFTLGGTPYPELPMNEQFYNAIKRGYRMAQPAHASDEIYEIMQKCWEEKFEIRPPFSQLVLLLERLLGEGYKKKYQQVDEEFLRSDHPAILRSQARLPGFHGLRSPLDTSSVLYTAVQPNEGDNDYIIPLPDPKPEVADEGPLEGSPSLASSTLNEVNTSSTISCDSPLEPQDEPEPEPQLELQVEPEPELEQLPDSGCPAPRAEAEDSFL
Source text: as §1

MET M1250T = MET M1250T (Homo sapiens (Human), UniProt P08581, M1250T); test: In vitro kinase panel (SelectScreen); type: biochemical
Source text: as §1

FLT1 (VEGFR1) = FLT1 (VEGFR1) (Homo sapiens (Human), UniProt P17948); test: In vitro kinase panel (SelectScreen); type: biochemical
Source text: as §1

PKC alpha = PKC alpha (Homo sapiens (Human), UniProt P17252); test: In vitro kinase panel (SelectScreen); type: biochemical
Source text: as §1

PKC iota = PKC iota (Homo sapiens (Human), UniProt P41743); test: In vitro kinase panel (SelectScreen); type: biochemical
PKC iota, sequence (P41743 whole entry): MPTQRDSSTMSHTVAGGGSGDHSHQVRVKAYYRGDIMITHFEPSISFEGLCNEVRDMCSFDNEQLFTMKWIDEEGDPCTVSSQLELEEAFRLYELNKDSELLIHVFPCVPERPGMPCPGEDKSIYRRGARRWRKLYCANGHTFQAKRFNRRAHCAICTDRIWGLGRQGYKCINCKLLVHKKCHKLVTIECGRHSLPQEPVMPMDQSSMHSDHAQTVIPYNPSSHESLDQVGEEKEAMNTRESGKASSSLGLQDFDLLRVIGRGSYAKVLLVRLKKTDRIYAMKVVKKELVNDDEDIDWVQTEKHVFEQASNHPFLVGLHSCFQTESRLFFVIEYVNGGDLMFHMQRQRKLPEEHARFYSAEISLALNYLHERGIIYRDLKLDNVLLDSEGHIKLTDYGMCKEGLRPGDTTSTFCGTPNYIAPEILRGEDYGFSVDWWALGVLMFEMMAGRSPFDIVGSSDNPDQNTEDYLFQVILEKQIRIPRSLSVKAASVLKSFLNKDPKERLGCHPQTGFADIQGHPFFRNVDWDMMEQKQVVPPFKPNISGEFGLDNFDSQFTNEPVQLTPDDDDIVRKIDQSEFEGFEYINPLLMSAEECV
Source text: as §1

FGFR4 = FGFR4 (Homo sapiens (Human), UniProt P22455); test: In vitro kinase panel (SelectScreen); type: biochemical
FGFR4, sequence (P22455 22-802): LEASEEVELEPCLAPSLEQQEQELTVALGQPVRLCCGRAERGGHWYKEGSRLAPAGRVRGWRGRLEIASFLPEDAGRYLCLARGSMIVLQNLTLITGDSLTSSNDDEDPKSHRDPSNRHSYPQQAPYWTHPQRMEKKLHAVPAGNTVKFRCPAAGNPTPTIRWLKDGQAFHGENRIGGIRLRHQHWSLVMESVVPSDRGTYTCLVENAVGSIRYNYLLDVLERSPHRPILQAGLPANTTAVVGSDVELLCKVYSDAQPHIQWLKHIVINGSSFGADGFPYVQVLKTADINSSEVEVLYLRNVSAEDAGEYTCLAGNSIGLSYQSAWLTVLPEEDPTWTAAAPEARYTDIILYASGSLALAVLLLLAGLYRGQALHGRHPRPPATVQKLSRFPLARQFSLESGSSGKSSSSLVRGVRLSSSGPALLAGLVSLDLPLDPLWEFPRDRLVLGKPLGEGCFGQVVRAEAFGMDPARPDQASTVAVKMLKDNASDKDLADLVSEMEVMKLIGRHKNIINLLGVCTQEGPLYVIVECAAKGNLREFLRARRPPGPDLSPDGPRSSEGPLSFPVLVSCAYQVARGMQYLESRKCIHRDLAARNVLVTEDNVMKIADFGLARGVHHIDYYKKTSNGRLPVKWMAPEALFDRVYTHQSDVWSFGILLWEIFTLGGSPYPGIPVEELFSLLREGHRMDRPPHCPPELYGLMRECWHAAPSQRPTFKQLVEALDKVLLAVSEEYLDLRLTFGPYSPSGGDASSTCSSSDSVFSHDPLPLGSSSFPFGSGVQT
Source text: as §1

AKT1 = AKT1 (Homo sapiens (Human), UniProt P31749); test: In vitro kinase panel (SelectScreen); type: biochemical
Source text: as §1

MET (cMet) = MET (cMet) (Homo sapiens (Human), UniProt P08581); test: In vitro kinase panel (SelectScreen); type: biochemical
Source text: as §1

PKC eta = PKC eta (Homo sapiens (Human), UniProt P24723); test: In vitro kinase panel (SelectScreen); type: biochemical
Source text: as §1

KIT = KIT (Homo sapiens (Human), UniProt P10721); test: In vitro kinase panel (SelectScreen); type: biochemical
KIT, sequence (P10721 26-976): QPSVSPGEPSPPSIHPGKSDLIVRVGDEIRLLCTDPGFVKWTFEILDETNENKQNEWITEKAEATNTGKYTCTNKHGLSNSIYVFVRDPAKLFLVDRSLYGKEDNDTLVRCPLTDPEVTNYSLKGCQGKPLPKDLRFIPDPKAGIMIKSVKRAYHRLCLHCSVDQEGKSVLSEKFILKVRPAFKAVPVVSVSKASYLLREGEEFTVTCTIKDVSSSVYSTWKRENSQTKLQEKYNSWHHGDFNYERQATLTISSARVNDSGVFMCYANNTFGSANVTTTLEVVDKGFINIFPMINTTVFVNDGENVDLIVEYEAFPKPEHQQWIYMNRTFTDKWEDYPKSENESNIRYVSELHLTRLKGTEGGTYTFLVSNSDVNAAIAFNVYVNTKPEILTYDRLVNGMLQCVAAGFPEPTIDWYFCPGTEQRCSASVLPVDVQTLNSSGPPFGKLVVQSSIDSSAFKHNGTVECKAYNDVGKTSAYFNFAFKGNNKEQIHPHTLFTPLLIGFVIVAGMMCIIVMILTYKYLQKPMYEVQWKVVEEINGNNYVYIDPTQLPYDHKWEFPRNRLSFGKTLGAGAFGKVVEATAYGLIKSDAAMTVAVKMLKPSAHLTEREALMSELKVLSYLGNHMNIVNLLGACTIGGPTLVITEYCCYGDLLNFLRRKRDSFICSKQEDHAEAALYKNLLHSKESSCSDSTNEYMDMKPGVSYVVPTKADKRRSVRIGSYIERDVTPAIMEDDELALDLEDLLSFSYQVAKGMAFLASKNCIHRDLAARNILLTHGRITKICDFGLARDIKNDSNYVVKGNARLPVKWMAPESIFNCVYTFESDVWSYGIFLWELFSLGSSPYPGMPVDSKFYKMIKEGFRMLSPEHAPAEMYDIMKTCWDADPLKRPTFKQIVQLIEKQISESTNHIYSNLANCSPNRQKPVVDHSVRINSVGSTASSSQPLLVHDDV
Source text: as §1

ERK1 = ERK1 (Homo sapiens (Human), UniProt P27361); test: In vitro kinase panel (SelectScreen); type: biochemical
Source text: as §1

FGFR2 = FGFR2 (Homo sapiens (Human), UniProt P21802); test: In vitro kinase panel (SelectScreen); type: biochemical
Source text: as §1

JNK3 = JNK3 (Homo sapiens (Human), UniProt P53779); test: In vitro kinase panel (SelectScreen); type: biochemical
Source text: as §1

PKC delta = PKC delta (Homo sapiens (Human), UniProt Q05655); test: In vitro kinase panel (SelectScreen); type: biochemical
PKC delta, sequence (Q05655 whole entry): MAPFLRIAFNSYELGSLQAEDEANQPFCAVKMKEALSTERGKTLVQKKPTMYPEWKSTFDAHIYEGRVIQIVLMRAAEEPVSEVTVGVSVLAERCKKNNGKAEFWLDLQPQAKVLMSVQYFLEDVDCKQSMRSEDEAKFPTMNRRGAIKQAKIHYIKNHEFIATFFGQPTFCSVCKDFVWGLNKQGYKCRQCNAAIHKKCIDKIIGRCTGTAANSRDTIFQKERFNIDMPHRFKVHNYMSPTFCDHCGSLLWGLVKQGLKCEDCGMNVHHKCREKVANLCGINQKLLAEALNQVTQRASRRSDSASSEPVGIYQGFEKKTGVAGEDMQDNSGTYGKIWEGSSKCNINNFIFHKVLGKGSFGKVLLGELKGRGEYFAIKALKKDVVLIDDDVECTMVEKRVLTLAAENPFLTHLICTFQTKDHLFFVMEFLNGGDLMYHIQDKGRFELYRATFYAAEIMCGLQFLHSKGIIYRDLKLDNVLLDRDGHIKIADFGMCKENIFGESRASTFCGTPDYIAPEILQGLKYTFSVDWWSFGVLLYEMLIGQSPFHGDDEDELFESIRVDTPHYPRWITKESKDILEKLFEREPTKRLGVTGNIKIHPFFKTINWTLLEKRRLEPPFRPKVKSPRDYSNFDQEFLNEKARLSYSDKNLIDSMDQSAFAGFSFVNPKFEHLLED
Source text: as §1

FLT3 D835Y = FLT3 D835Y (Homo sapiens (Human), UniProt P36888, D835Y); test: In vitro kinase panel (SelectScreen); type: biochemical
Description: as §2

Compound: Nc1cc(Oc2ccc(-c3nnc(Nc4cccc(C(F)(F)F)c4)[nH]3)cc2)ncn1 [Compound 3]
- % Inhibition at 10 μM (FLT3): −4%
- cell cycle / mitotic progression (XPA-1 cells): showed no effect
- % Inhibition at 10 μM (PKC gamma): 6%
- % Inhibition at 10 μM (PKC beta II): −3%
- % Inhibition at 10 μM (JNK1): −5%
- % Inhibition at 10 μM (CDK2): 2%
- % Inhibition at 10 μM (MEK1): −5%
- % Inhibition at 10 μM (FGFR3 K650E): 4%
- % Inhibition at 10 μM (PAK2): 2%
- % Inhibition at 10 μM (FGFR3): −12%
- % Inhibition at 10 μM (MEK2): −8%
- % Inhibition at 10 μM (IGF1R): −4%
- % Inhibition at 10 μM (ERK2): −4%
- % Inhibition at 10 μM (CRAF Y340D Y341D): 38%
- % Inhibition at 10 μM (PKC beta I): −3%
- % Inhibition at 10 μM (MAPKAPK2): 1%
- % Inhibition at 10 μM (FAK2): −4%
- % Inhibition at 10 μM (CK2 alpha 1): −3%
- % Inhibition at 10 μM (JNK2): −7%
- % Inhibition at 10 μM (PDGFR beta): 35%
- % Inhibition at 10 μM (MET M1250T): 4%
- % Inhibition at 10 μM (FLT1 (VEGFR1)): 5%
- % Inhibition at 10 μM (PKC alpha): −5%
- % Inhibition at 10 μM (PKC iota): −2%
- % Inhibition at 10 μM (FGFR4): −6%
- % Inhibition at 10 μM (AKT1): 1%
- % Inhibition at 10 μM (MET (cMet)): 7%
- % Inhibition at 10 μM (PKC eta): 1%
- % Inhibition at 10 μM (KIT): 74%
- % Inhibition at 10 μM (ERK1): 1%
- % Inhibition at 10 μM (FGFR2): −1%
- % Inhibition at 10 μM (JNK3): −8%
- % Inhibition at 10 μM (PKC delta): −1%
- % Inhibition at 10 μM (FLT3 D835Y): 29%

Compound: CSc1nc(N)cc(Oc2ccc(-c3nnc(Nc4cccc(C(F)(F)F)c4)[nH]3)cc2)n1 [Compound 6]
- % Inhibition at 10 μM (FLT3): −2%
- cell cycle / mitotic progression (XPA-1 cells): G2/M arrest in all tumor cell lines tested
- % Inhibition at 10 μM (PKC gamma): 5%
- % Inhibition at 10 μM (PKC beta II): −4%
- % Inhibition at 10 μM (JNK1): −3%
- % Inhibition at 10 μM (CDK2): 2%
- % Inhibition at 10 μM (MEK1): −2%
- % Inhibition at 10 μM (FGFR3 K650E): −1%
- % Inhibition at 10 μM (PAK2): 1%
- % Inhibition at 10 μM (FGFR3): −13%
- % Inhibition at 10 μM (MEK2): −6%
- % Inhibition at 10 μM (IGF1R): 0%
- % Inhibition at 10 μM (ERK2): −5%
- % Inhibition at 10 μM (CRAF Y340D Y341D): 3%
- % Inhibition at 10 μM (PKC beta I): 2%
- % Inhibition at 10 μM (MAPKAPK2): 2%
- % Inhibition at 10 μM (FAK2): −4%
- % Inhibition at 10 μM (CK2 alpha 1): 0%
- % Inhibition at 10 μM (JNK2): −4%
- % Inhibition at 10 μM (PDGFR beta): 20%
- % Inhibition at 10 μM (MET M1250T): −1%
- % Inhibition at 10 μM (FLT1 (VEGFR1)): −2%
- % Inhibition at 10 μM (PKC alpha): −1%
- % Inhibition at 10 μM (PKC iota): 0%
- % Inhibition at 10 μM (FGFR4): −7%
- % Inhibition at 10 μM (AKT1): 2%
- % Inhibition at 10 μM (MET (cMet)): 3%
- % Inhibition at 10 μM (PKC eta): 3%
- % Inhibition at 10 μM (KIT): 28%
- % Inhibition at 10 μM (ERK1): 2%
- % Inhibition at 10 μM (FGFR2): −2%
- % Inhibition at 10 μM (JNK3): −8%
- % Inhibition at 10 μM (PKC delta): −1%
- % Inhibition at 10 μM (FLT3 D835Y): 9%

Compound: CNC(=O)c1cc(Oc2ccc(NC(=O)Nc3ccc(Cl)c(C(F)(F)F)c3)cc2)ccn1 [sorafenib, reference compound]
- inhibition at 10 µM (FLT3): 9%
- cell cycle / mitotic progression (XPA-1 cells): had no effect on mitotic progression
- inhibition at 10 µM (PKC gamma): -3%
- inhibition at 10 µM (PKC beta II): -3%
- inhibition at 10 µM (JNK1): -2%
- inhibition at 10 µM (CDK2): 2%
- inhibition at 10 µM (MEK1): 0%
- inhibition at 10 µM (FGFR3 K650E): 78%
- inhibition at 10 µM (PAK2): 2%
- inhibition at 10 µM (FGFR3): 37%
- inhibition at 10 µM (MEK2): -4%
- inhibition at 10 µM (IGF1R): -3%
- inhibition at 10 µM (ERK2): 0%
- inhibition at 10 µM (CRAF Y340D Y341D): 95%
- inhibition at 10 µM (PKC beta I): -1%
- inhibition at 10 µM (MAPKAPK2; read-out: % Inhibition at 10 μM): 2%
- inhibition at 10 µM (FAK2): -3%
- inhibition at 10 µM (CK2 alpha 1): -3%
- inhibition at 10 µM (JNK2): 10%
- inhibition at 10 µM (PDGFR beta): 93%
- inhibition at 10 µM (MET M1250T): 3%
- inhibition at 10 µM (FLT1 (VEGFR1)): 93%
- inhibition at 10 µM (PKC alpha): -2%
- inhibition at 10 µM (PKC iota): -2%
- inhibition at 10 µM (FGFR4): 7%
- inhibition at 10 µM (AKT1): 2%
- inhibition at 10 µM (MET (cMet)): 2%
- inhibition at 10 µM (PKC eta): 2%
- inhibition at 10 µM (KIT): 37%
- inhibition at 10 µM (ERK1): 3%
- inhibition at 10 µM (FGFR2): 83%
- inhibition at 10 µM (JNK3): -4%
- inhibition at 10 µM (PKC delta): -4%
- inhibition at 10 µM (FLT3 D835Y): 72%

Reference: patent publication US9260417B2, “Therapeutic methods and compositions involving allosteric kinase inhibition” (AMITECH THERAPEUTIC SOLUTIONS, INC., priority 2010, dated 2016)
